Like-named read-outs stand apart in the source and are kept apart here. Where no end group is shown, it is not given here.

In data set [1] the test system is MRSA (ATCC BAA-1556). To be noted: broth microdilution (CLSI), CAMHB, 37 °C, 24 h. In outline: (§1)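 Broth microdilution per CLSI: overnight cultures diluted in cation-adjusted Mueller Hinton Broth to 10^6 CFU/mL, mixed with 2-fold serial peptide dilutions, incubated 37 °C for 24 h. MIC = lowest peptide concentration inhibiting growth. Three independent assays in triplicate.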
Background: Broth dilution looks for growth in wells or tubes with falling amounts of substance.

Data set [2] deals with E. coli (ATCC 25922). To be noted: broth microdilution (CLSI), CAMHB, 37 °C, 24 h. The method, boiled down:
as §1

In data set [3] the test system is K. pneumoniae (ATCCBAA-1705). Description: MIC, standard microtiter dilution (CLSI). Type of data set: cell-based, Klebsiella pneumoniae. The following applies: broth microdilution (CLSI), CAMHB, 37 °C, 24 h. The method, boiled down: as §1
Data set [4] can be described thus: Relative hydrophobicity as RP-HPLC retention time. In kind it is physicochemical. The following applies: chromatographic, Phenomenex Luna C18 4 μm 150 × 4.6 mm, linear AB gradient 1% acetonitrile/min, 0.3 mL/min, A water 0.1% TFA, B acetonitrile 0.1% TFA, 25 °C. As to the method:
The purity analysis of the peptides was conducted on a RP-HPLC system (Shimadzu; LC-20ADXR) by using a Phenomenex (Luna) analytical C18 column (4 μm, 150 × 4.6 mm). The mass of the purified peptides was determined in the positive-ion mode using Q-TOF LC/MS (Compass Hystar 4.1, Bruker, USA). The purity (>95%) and mass data of all the synthesized peptides are provided in the Supporting Information.
8. Comparative Hydrophobicity analysis
The purity of all synthesized peptides was determined using reverse phase analytical HPLC
(Shimadzu; LC-20ADXR). Below mentioned are the conditions used to conduct the purity
Column: Phenomenex (Luna), 4 um, C18, 150 × 4.6 mm
Mobile Phase: Buffer A-Water containing 0.1% TFA,
Buffer B-Acetonitrile containing 0.1% TFA
Figure S52. HPLC chromatogram of 6a.
(1 picture or pasted object on this page, not shown here)

Data set [5] has as its system P. aeruginosa (ATCC 27883). Briefly: MIC, standard microtiter dilution (CLSI). Type of data set: cell-based, Pseudomonas aeruginosa. The following applies: broth microdilution (CLSI), CAMHB, 37 °C, 24 h. The method, boiled down: as §1
A short description of data set [6]: CD spectroscopy, helicity.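 On % of helicity induced by Liposomes: share of the total helicity with liposomes gained over the same peptide in PBS.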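 On % of helicity induced by TFE: share of the total helicity in TFE gained over the same peptide in PBS.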 Type of data set: physicochemical. More on the design: key to Δ[θ]222 induced by TFE / Δ[θ]222 induced by Liposomes: mean residue molar ellipticity, mdeg cm2/(dmol × res). The following applies: for [θ]222 mean residue molar ellipticity, TFE / [θ]222 mean residue molar ellipticity, Liposomes / [θ]222 mean residue molar ellipticity, PBS: CD at 222 nm, 25 °C; for [θ]222 mean residue molar ellipticity, TFE: aqueous buffer containing 50% TFE; for [θ]222 mean residue molar ellipticity, Liposomes / Δ[θ]222 induced by Liposomes: bacterial membrane mimicking liposomes; for [θ]222 mean residue molar ellipticity, Liposomes: peptide:lipid molar ratio 1:1.05; for [θ]222 mean residue molar ellipticity, PBS: phosphate buffer saline pH 7.0; for Δ[θ]222 induced by TFE / Δ[θ]222 induced by Liposomes: difference to PBS; for Δ[θ]222 induced by TFE: 50% TFE; for % of helicity induced by TFE: increase in molar ellipticity at 222 nm in the presence of 50% TFE; for % of helicity induced by Liposomes: increase in molar ellipticity at 222 nm in the presence of liposomes. The method, boiled down: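 Ellipticity at 222 nm, converted to mean residue molar ellipticity, was measured at 25 °C (three-scan average, 190–260 nm, 1 mm path) in phosphate buffer pH 7.2, 50% TFE, or liposomes at 75 μM lipid, after blank subtraction. Induced helicity is the percent rise at 222 nm versus buffer.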

Data set [7] relates to S. aureus (ATCC 29213). Briefly: MIC, standard microtiter dilution (CLSI). In kind it is cell-based. The following applies: broth microdilution (CLSI), CAMHB, 37 °C, 24 h. In outline:
as §1

For data set [8], the system named is human red blood cells (hRBCs). Description: Hemolytic assay. Type of data set: cell-based. To be noted: 2 h, 37 °C. In outline: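 Percent hemolysis uses PBS as 0% and 1% Triton X-100 as 100% references, from supernatant absorbance at 567 nm. Red cells (4% in PBS, equal volume) exposed 2 h at 37 °C without agitation to 2-fold serially diluted peptide.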
[9] abbreviates: 10^6 CFU/mL, highest MIC of three independent experiments in triplicate.
The mark [10] stands for this setting: hRBC suspension 4% in PBS, hemoglobin release at 567 nm, 1% Triton X-100 = 100%.
Where [11] appears, read: value in parentheses (μM), hRBC 4% in PBS, 567 nm.

In the case of Ac-RWIRRWIRWWRR-NH2 [7c], the “MIC, MRSA (ATCC BAA-1556)” value in data set [1] (setting [9]) was determined as 6.2 µg/mL. The “MIC, MRSA (ATCC BAA-1556)” value in data set [1] (value in parentheses (μM)) came to 3.15 µM. For the same substance, in data set [2] (setting [9]), the “MIC, E. coli (ATCC 25922)” value is 12.5 µg/mL. Further, the “MIC, E. coli (ATCC 25922)” value in data set [2] (value in parentheses (μM)) amounted to 6.35 µM. Moreover, the “MIC, K. pneumoniae (ATCCBAA-1705)” value in data set [3] (setting [9]) came out at 25 µg/mL. For the same substance, the “MIC, K. pneumoniae (ATCCBAA-1705)” value in data set [3] (value in parentheses (μM)) is 12.70 µM. In data set [4], the “tR, RP-HPLC retention time (measure of overall hydrophobicity)” value (“tR, RP-HPLC retention time” below) turned out to be 40.63 min. Further, the “MIC, P. aeruginosa (ATCC 27883)” value in data set [5] (setting [9]) is 6.2 µg/mL. Moreover, the “MIC, P. aeruginosa (ATCC 27883)” value in data set [5] (value in parentheses (μM)) turned out to be 3.15 µM. Besides, in data set [6], the “[θ]222 mean residue molar ellipticity, TFE” value is -10279 mdeg cm2/(dmol × res); the “[θ]222 mean residue molar ellipticity, Liposomes” value is -19297 mdeg cm2/(dmol × res); the “[θ]222 mean residue molar ellipticity, PBS” value is -3192 mdeg cm2/(dmol × res); the “Δ[θ]222 induced by TFE” value is given as -7087. Also, in data set [6], the “Δ[θ]222 induced by Liposomes” value is reported as -16105, the “% of helicity induced by TFE” value came out at 68.94% and the “% of helicity induced by Liposomes” value is 83.45%. The “MIC, S. aureus (ATCC 29213)” value in data set [7] (setting [9]) worked out at 6.2 µg/mL. In data set [7] (value in parentheses (μM)), the “MIC, S. aureus (ATCC 29213)” value was found to be 3.15 µM. Moreover, the “HC50 (concentration at which 50% hemolysis was observed)” value in data set [8] (setting [10]) was determined as 40 µg/mL. The “HC50 (concentration at which 50% hemolysis was observed)” value in data set [8] (setting [11]) turned out to be 20.33 µM.
For the substance KWAKKWAKWWKK-NH2 [6b], in data set [1] (setting [9]), the “MIC, MRSA (ATCC BAA-1556)” value was determined as 100 µg/mL. Further, the “MIC, MRSA (ATCC BAA-1556)” value in data set [1] (value in parentheses (μM)) worked out at 59.77 µM. The “MIC, E. coli (ATCC 25922)” value in data set [2] (setting [9]) was more than 100 µg/mL. The “MIC, E. coli (ATCC 25922)” value in data set [2] (value in parentheses (μM)) is more than 59.77 µM. Moreover, in data set [3] (setting [9]), the “MIC, K. pneumoniae (ATCCBAA-1705)” value was more than 100 µg/mL. Besides, the “MIC, K. pneumoniae (ATCCBAA-1705)” value in data set [3] (value in parentheses (μM)) was more than 59.77 µM. Also, the “tR, RP-HPLC retention time” value in data set [4] is on record as 28.98 min. In addition, the “MIC, P. aeruginosa (ATCC 27883)” value in data set [5] (setting [9]) was more than 100 µg/mL. In data set [5] (value in parentheses (μM)), the “MIC, P. aeruginosa (ATCC 27883)” value was more than 59.77 µM. Also, in data set [6], the “[θ]222 mean residue molar ellipticity, TFE” value was -14689 mdeg cm2/(dmol × res); the “[θ]222 mean residue molar ellipticity, Liposomes” value was -20391 mdeg cm2/(dmol × res); the “[θ]222 mean residue molar ellipticity, PBS” value is reported as -7476 mdeg cm2/(dmol × res); the “Δ[θ]222 induced by TFE” value is -7212. In data set [6], the “Δ[θ]222 induced by Liposomes” value is -12915, the “% of helicity induced by TFE” value is recorded as 49.10% and the “% of helicity induced by Liposomes” value turned out to be 63.33%. For the same substance, in data set [7] (setting [9]), the “MIC, S. aureus (ATCC 29213)” value stood at 100 µg/mL. The “MIC, S. aureus (ATCC 29213)” value in data set [7] (value in parentheses (μM)) came to 59.77 µM. For the same substance, in data set [8] (setting [10]), the “HC50 (concentration at which 50% hemolysis was observed)” value was more than 500 µg/mL. Besides, the “HC50 (concentration at which 50% hemolysis was observed)” value in data set [8] (setting [11]) is more than 298.85 µM.
KWLKKWWKWWKK-NH2 [8e]: the “MIC, MRSA (ATCC BAA-1556)” value in data set [1] (setting [9]) worked out at 12.5 µg/mL. Besides, in data set [1] (value in parentheses (μM)), the “MIC, MRSA (ATCC BAA-1556)” value amounted to 6.83 µM. Further, the “MIC, E. coli (ATCC 25922)” value in data set [2] (setting [9]) turned out to be 12.5 µg/mL. For the same substance, the “MIC, E. coli (ATCC 25922)” value in data set [2] (value in parentheses (μM)) worked out at 6.83 µM. Further, in data set [3] (setting [9]), the “MIC, K. pneumoniae (ATCCBAA-1705)” value was found to be 25 µg/mL. Further, the “MIC, K. pneumoniae (ATCCBAA-1705)” value in data set [3] (value in parentheses (μM)) is 13.66 µM. In addition, the “tR, RP-HPLC retention time” value in data set [4] is on record as 34.10 min. In addition, the “MIC, P. aeruginosa (ATCC 27883)” value in data set [5] (setting [9]) was determined as 12.5 µg/mL. For the same substance, the “MIC, P. aeruginosa (ATCC 27883)” value in data set [5] (value in parentheses (μM)) was 6.83 µM. Besides, in data set [6], the “[θ]222 mean residue molar ellipticity, TFE” value is -11148 mdeg cm2/(dmol × res); the “[θ]222 mean residue molar ellipticity, Liposomes” value was -15042 mdeg cm2/(dmol × res); the “[θ]222 mean residue molar ellipticity, PBS” value is given as -5411 mdeg cm2/(dmol × res); the “Δ[θ]222 induced by TFE” value was -5736. In addition, in data set [6], the “Δ[θ]222 induced by Liposomes” value is listed as -9630, the “% of helicity induced by TFE” value was 51.45% and the “% of helicity induced by Liposomes” value is given as 64.02%. Further, the “MIC, S. aureus (ATCC 29213)” value in data set [7] (setting [9]) was 12.5 µg/mL. The “MIC, S. aureus (ATCC 29213)” value in data set [7] (value in parentheses (μM)) was 6.83 µM. For the same substance, the “HC50 (concentration at which 50% hemolysis was observed)” value in data set [8] (setting [10]) stood at 240 µg/mL. Moreover, the “HC50 (concentration at which 50% hemolysis was observed)” value in data set [8] (setting [11]) amounted to 131.13 µM.

(Values after paper PMC9841524, “Structure-Based Rational Design of Small α-Helical Peptides with Broad-Spectrum Activity against Multidrug-Resistant Pathogens” (Journal of Medicinal Chemistry, 2022).)
